Experimental data published in patent US10214542B2, “Modified macrocyclic compounds” (BAYER PHARMA AKTIENGESELLSCHAFT, priority 2015, dated 2019).

Key:
CDK2/CycE = molecular target: T1, CDK2/CycE (Homo sapiens, UniProt P24941); experiment: CDK2/CycE kinase assay (TR-FRET, Method 2a); format: biochemical; conditions: 10 μM ATP
T1 construct: GST; purchased ProQinase GmbH (Freiburg, Germany); host or cells: insect cells (Sf9)
Description: 2a. CDK2/CycE Kinase Assay:
CDK2/CycE-inhibitory activity of compounds of the present invention was quantified employing the CDK2/CycE TR-FRET assay as described in the following paragraphs:
Recombinant fusion proteins of GST and human CDK2 and of GST and human CycE, expressed in insect cells (Sf9) and purified by Glutathion-Sepharose affinity chromatography, were purchased from ProQinase GmbH (Freiburg, Germany). As substrate for the kinase reaction biotinylated peptide biotin-Ttds-YISPLKSPYKISEG (C-terminus in amid form) was used which can be purchased e.g. from the company JERINI Peptide Technologies (Berlin, Germany).
(§1) For the assay 50 nl of a 100 fold concentrated solution of the test compound in DMSO was pipetted into a black low volume 384 well microtiter plate (Greiner Bio-One, Frickenhausen, Germany), 2 μl of a solution of CDK2/CycE in aqueous assay buffer [50 mM Tris/HCl pH 8.0, 10 mM MgCl2, 1.0 mM dithiothreitol, 0.1 mM sodium ortho-vanadate, 0.01% (v/v) Nonidet-P40 (Sigma)] were added and the mixture was incubated for 15 min at 22° C. to allow pre-binding of the test compounds to the enzyme before the start of the kinase reaction. […] The concentration of CDK2/CycE was adjusted depending of the activity of the enzyme lot and was chosen appropriate to have the assay in the linear range, typical concentrations were in the range of 130 ng/mL. The reaction was stopped by the addition of 5 μl of a solution of TR-FRET detection reagents (0.2 μM streptavidine-XL665 [Cisbio Bioassays, Codolet, France] and 1 nM anti-RB(pSer807/pSer811)-antibody from BD Pharmingen [#558389] and 1.2 nM LANCE EU-W1024 labeled anti-mouse IgG antibody [Perkin-Elmer, product no. AD0077]) in an aqueous EDTA-solution (100 mM EDTA, 0.2% (w/v) bovine serum albumin in 100 mM HEPES pH 7.5).
(§2) The resulting mixture was incubated 1 h at 22° C. to allow the formation of complex between the phosphorylated biotinylated peptide and the detection reagents. Subsequently the amount of phosphorylated substrate was evaluated by measurement of the resonance energy transfer from the Eu-chelate to the streptavidine-XL. Therefore, the fluorescence emissions at 620 nm and 665 nm after excitation at 350 nm was measured in a TR-FRET reader, e.g. a Rubystar (BMG Labtechnologies, Offenburg, Germany) or a Viewlux (Perkin-Elmer). The ratio of the emissions at 665 nm and at […] was taken as the measure for the amount of phosphorylated substrate. The data were normalised (enzyme reaction without inhibitor=0% inhibition, all other assay components but no enzym=100% inhibition).

A2780 cells = experiment: Proliferation assay, Cell Titre-Glo viability (Method 3); format: cell-based, human; conditions: Homo sapiens, A2780, 72 h, A2780, 72-hour exposure; read-out: Inhibition of A2780 cell proliferation IC50
Description: A2780 human ovarian carcinoma cells (ECACC #93112519) and non-adherent MOLM-13 human acute myeloid leukemia cells (DSMZ ACC 554) were seeded at a density of 3,000 cell/well (A2780) or 5,000 cells/well (MOLM-13) in a 96-well multititer plate in 150 μL of growth medium supplemented 10% fetal calf serum. After 24 hours, cell viability of one plate (zero-point plate) was determined with the Cell Titre-Glo Luminescent Cell Viability Assay (Promega), while the medium of the other plates was supplemented with the test substances in various concentrations (0 μM, as well as in the range of 0.0001-10 μM; the final concentration of the solvent dimethyl sulfoxide was adjusted to 0.1%) using a Hewlett-Packard HP D300 Digital Dispenser. Cell viability was assessed after 72-hour exposure with the Cell
Titre-Glo Luminescent Cell Viability Assay (Promega). IC50 values (inhibitory concentration at 50% of maximal effect) were determined by means of a 4 parameter fit on measurement data which were normalized to vehicle (DMSO) treated cells (=100%) and measurement readings taken immediately before compound exposure (=0%).

CDK9/CycT1 = molecular target: T2, CDK9/CycT1 (Homo sapiens, UniProt P50750); experiment: CDK9/CycT1 kinase assay (TR-FRET, Method 1a); format: biochemical; conditions: 10 μM ATP; for IC50: Method 1a; for Selectivity CDK9 over CDK2: IC50 (CDK2)/IC50 (CDK9): Methods 1a and 2a
T2 construct: Recombinant full-length His-tagged human CDK9 and CycT1; His; purchased Invitrogen PV4131; host or cells: insect cells
T2 sequence (P50750 whole entry): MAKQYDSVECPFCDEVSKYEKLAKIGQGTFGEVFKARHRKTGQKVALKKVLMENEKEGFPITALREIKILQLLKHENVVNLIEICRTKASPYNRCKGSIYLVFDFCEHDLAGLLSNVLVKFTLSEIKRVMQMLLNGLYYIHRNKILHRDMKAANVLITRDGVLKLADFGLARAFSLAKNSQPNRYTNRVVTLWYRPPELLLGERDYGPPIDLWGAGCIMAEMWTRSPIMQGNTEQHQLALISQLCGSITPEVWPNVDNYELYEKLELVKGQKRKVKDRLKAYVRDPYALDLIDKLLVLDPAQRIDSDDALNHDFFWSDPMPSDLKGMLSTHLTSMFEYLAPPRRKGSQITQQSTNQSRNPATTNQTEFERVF
T2 sequence (O60563 whole entry partner): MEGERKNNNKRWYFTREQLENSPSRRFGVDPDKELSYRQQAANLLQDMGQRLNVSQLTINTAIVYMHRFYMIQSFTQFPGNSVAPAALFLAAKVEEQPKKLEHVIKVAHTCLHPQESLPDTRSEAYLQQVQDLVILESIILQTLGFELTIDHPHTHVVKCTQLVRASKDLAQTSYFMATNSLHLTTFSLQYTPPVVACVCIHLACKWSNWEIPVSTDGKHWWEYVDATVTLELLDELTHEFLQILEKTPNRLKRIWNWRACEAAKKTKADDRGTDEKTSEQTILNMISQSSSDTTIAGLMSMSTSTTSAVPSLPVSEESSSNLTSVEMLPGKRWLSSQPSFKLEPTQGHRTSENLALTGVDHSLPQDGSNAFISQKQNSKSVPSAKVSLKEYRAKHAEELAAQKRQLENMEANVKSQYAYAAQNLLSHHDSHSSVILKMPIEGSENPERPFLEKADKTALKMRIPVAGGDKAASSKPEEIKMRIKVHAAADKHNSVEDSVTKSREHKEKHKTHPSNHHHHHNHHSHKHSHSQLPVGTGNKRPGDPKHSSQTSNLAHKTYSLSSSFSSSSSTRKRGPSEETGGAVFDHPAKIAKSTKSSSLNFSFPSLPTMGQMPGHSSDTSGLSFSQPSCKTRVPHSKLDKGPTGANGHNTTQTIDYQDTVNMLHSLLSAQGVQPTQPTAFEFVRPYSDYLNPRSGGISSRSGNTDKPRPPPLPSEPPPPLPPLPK
Description: 1a. CDK9/CycT1 Kinase Assay:
CDK9/CycT1-inhibitory activity of compounds of the present invention was quantified employing the CDK9/CycT1 TR-FRET assay as described in the following paragraphs:
Recombinant full-length His-tagged human CDK9 and CycT1, expressed in insect cells and purified by Ni-NTA affinity chromatography, were purchased from Invitrogen (Cat. No PV4131). As substrate for the kinase reaction biotinylated peptide biotin-Ttds-YISPLKSPYKISEG (C-terminus in amid form) was used which can be purchased e.g. from the company JERINI Peptide Technologies (Berlin, Germany).
as §1, with “CDK9/CycT1” for “CDK2/CycE”, “1 μg/mL.” for “130 ng/mL.”
as §2, with “HTRF” for “TR-FRET”

IC50 (CDK2/CycE)	IC50 (A2780 cells)	IC50 (CDK9/CycT1)	Selectivity CDK9 over CDK2: IC50 (CDK2)/IC50 (CDK9) (CDK9/CycT1)	Compound
81.5 nM	9 nM	2.9 nM	28.1	CSCc1cc2nc(c1)Nc1cc(c(F)cn1)-c1ccc(F)cc1OCCCN2 [Example 1, 15,19-Difluoro-8-[(methylsulfanyl)methyl]-2,3,4,5-tetrahydro-11H-10,6-(azeno)-12,16-(metheno)-1,5,11,13-benzoxatriazacyclooctadecine]
27 nM	> 100 nM	25 nM	1.1	CSCc1cc2nc(c1F)N(C)CCCCOc1cc(F)ccc1-c1cc(ncc1F)N2 [Example 12, 8,16,20-trifluoro-6-methyl-9-[(methylsulfanyl)methyl]-3,4,5,6-tetrahydro-2H,12H-11,7-(azeno)-13,17-(metheno)-1,6,12,14-benzoxatriazacyclononadecine]
2560 nM	> 100 nM	99 nM	25.9	CSCc1cc2nc(c1)OCCCCCc1cc(F)ccc1-c1cc(ncc1F)N2 [Example 18, 2,19-difluoro-9-[(methylsulfanyl)methyl]-14,15,16,17-tetrahydro-6H,13H-7,11-(azeno)-5,1-(metheno)-12,4,6-benzoxadiazacyclononadecine]
